Values of other authors as cited in patent publication US20220387435A1, “USE OF MULTI-TARGET PROTEIN KINASE INHIBITOR” (CSPC Zhongqi Pharmaceutical Technology (Shijiazhuang) Co., …, priority 2019, published 2022).
Entries after “also recorded” stand apart in the source; their conditions may differ.

What was measured:
AML patients [1] = conditions: cited from earlier work; for Main toxicity: similar products, prior art
AML patients [2] = conditions: cited from earlier work; for CR rates in monotherapy for R/R AML: Sorafenib 400 mg BID, Midostaurin 50 mg BID, Quizartinib 30-60 mg QD, Gilteritinib 120 mg QD
FLT3-TKD mutation = conditions: similar products, prior art; cited from earlier work
[3] = 120 mg daily, N = 246, ADMIRAL trial
[4] = phase 3 clinical trial of Gilteritinib
[5] = phase 3 clinical trial of Quizatinib
[6] = phase II trial of oral Quizartinib, relapsed/refractory AML
[7] = phase II trial of oral Quizartinib

SMILES: CCc1nc(C(N)=O)c(Nc2ccc(N3CCC(N4CCN(C)CC4)CC3)c(OC)c2)nc1NC1CCOCC1 [Gilteritinib]
- Most common ADRs of grade ≥ 3: Anemia (AML patients [1]; [3]): 100 (40.7%)
- Most common ADRs of grade ≥ 3: Febrile neutropenia (AML patients [1]; [3]): 113 (45.9%)
- Most common ADRs of grade ≥ 3: Thrombocytopenia (AML patients [1]; [3]): 56 (22.8%)
- Cardiotoxicity ADR: Cardiac failure (AML patients [1]; 120 mg daily, N = 292): 4%
- Cardiotoxicity ADR: Pericardial effusion (AML patients [1]; 120 mg daily, N = 292): 3%
- Cardiotoxicity ADR: Pericarditis (AML patients [1]; 120 mg daily, N = 292): 2%
- Cardiotoxicity ADR: QT interval prolongation (AML patients [1]; 120 mg daily, N = 292): 8.4%
- incidence of ALT elevation of all grades (AML patients [1]; [4]): 26.3%
- incidence of ALT elevation of grade ≥3 (AML patients [1]; [4]): 12.9%
- incidence of AST elevation of all grades (AML patients [1]; [4]): 80.6%
- incidence of QT interval prolongation of all grades (AML patients [1]; [4]): 8.8%
- incidence of QT interval prolongation of grade ≥3 (AML patients [1]; [4]): 2.5%
- Main toxicity (AML patients [1]): Transaminase; also recorded: diarrhea

SMILES: CNC(=O)c1cc(Oc2ccc(NC(=O)Nc3ccc(Cl)c(C(F)(F)F)c3)cc2)ccn1 [Sorafenib]
- Main toxicity (AML patients [1]): Rash, bleeding,; also recorded: myelosuppression
- CR rates in monotherapy for R/R AML (AML patients [2]): <10%
- FLT3-TKD mutation activity (FLT3-TKD mutation): No

SMILES: CO[C@@H]1[C@H](N(C)C(=O)c2ccccc2)C[C@H]2O[C@]1(C)n1c3ccccc3c3c4c(c5c6ccccc6n2c5c31)C(=O)NC4 [Midostaurin]
- Main toxicity (AML patients [1]): Gastrointestinal; also recorded: myelosuppression

SMILES: CC(C)(C)c1cc(NC(=O)Nc2ccc(-c3cn4c(n3)sc3cc(OCCN5CCOCC5)ccc34)cc2)no1 [Quizartinib]
- serious hematological adverse reaction: anemia (AML patients [1]; [5]): 25.9%
- serious hematological adverse reaction: cytopenia (AML patients [1]; [5]): 2.5%
- serious hematological adverse reaction: febrile neutropenia (AML patients [1]; [5]): 15.8%
- serious hematological adverse reaction: leukopenia (AML patients [1]; [5]): 18.0%
- serious hematological adverse reaction: lymphopenia (AML patients [1]; [5]): 4.0%
- serious hematological adverse reaction: neutropenia (AML patients [1]; [5]): 25.9%
- serious hematological adverse reaction: thrombocytopenia (AML patients [1]; [5]): 34.2%
- adverse reaction: anemia (AML patients [1]; [6]): 29%
- adverse reaction: diarrhea (AML patients [1]; [6]): 20%
- adverse reaction: fatigue (AML patients [1]; [6]): 20%
- adverse reaction: febrile neutropenia (AML patients [1]; [6]): 25%
- adverse reaction: nausea (AML patients [1]; [6]): 38%
- adverse reaction: vomiting (AML patients [1]; [6]): 26%
- dose-limiting toxicity response (AML patients [1]; [7]): QT prolongation of Grade 3
- patients discontinuing the treatment due to adverse events (AML patients [1]; [7]): 10%
- Main toxicity (AML patients [1]): QTinterval; also recorded: myelosuppression
- CR (AML patients [2]; Quizatinib Japan phase 2 53 mg 26 cases, prior lines not limited): 0 cases
- CR rates in monotherapy for R/R AML (AML patients [2]): 24-47%
